Reference: ChEMBL document CHEMBL1201862, “PubChem BioAssay data set” (2004)
Several values for one entry are separate records, joined by “and”; a condition that tells them apart may be missing. Identical values can stand only once. Activity calls are given as the source filed them. Cut-off read from the data, not from the text of the source, for most assays here: actives have a measured EC50 and inactives only a lower limit.

Assays:
Cytochrome P450 3A4 = Cytochrome P450 3A4 (Homo sapiens, UniProt P08684);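 note: CYP3A4 tested as one member of a cytochrome P450 panel screen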
Cytochrome P450 2C9 = Cytochrome P450 2C9 (Homo sapiens, UniProt P11712)
[1] = cytotoxicity toward NIH3T3 fibroblasts, dose response, counter-screen, cell-based, ATP luminescence, mouse fibroblasts (AID 2010); assay type: functional;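 note: cells exposed to compound for about 90 hours before reading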
[2] = inhibitors of intracellular T. cruzi replication, confirmation, NIH3T3 host cells, beta-gal luminescence (AID 2044); assay type: functional, cell-based;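 note: intracellular parasites grown in NIH/3T3 mouse fibroblasts as host cells; luminescent beta-galactosidase reporter signal from transgenic T. cruzi replicating inside host cells; inhibitors lower the luminescence signal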
[3] = system: Streptococcus sp. 'group A'; assay: growth inhibition of control SK(-) GAS strain, dose response, counter-screen for streptokinase expression inhibitor project, luminescence, kanamycin, BacTiterGlo, confirmation (AID 1900); assay type: functional, organism-based
Streptokinase A = target: T1, Streptokinase A (Streptococcus pyogenes serotype M1, UniProt P10520); assay: S. pyogenes streptokinase expression inhibitors, potency, dose response, plasminogen activation absorbance, OD405 (AID 1914); assay type: functional, Streptococcus pyogenes M1 GAS;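 note: secreted streptokinase activity via plasminogen activation per viability signal from cell pellet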
T1 sequence (P10520 whole entry): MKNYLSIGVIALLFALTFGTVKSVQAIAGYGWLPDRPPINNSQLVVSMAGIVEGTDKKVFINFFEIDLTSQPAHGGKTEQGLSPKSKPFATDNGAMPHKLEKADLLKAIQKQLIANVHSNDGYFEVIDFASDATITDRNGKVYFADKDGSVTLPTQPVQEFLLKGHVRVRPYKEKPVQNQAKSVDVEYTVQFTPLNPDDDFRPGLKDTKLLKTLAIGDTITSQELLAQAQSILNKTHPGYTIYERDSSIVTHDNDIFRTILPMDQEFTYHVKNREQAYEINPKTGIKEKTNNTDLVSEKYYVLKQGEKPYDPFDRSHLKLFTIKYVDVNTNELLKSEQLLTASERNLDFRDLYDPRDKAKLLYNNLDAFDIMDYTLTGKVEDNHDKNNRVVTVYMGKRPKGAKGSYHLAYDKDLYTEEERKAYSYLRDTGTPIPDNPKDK

Streptococcus = assay: Group A Streptococcus viability loss, dose response, counter-screen for streptokinase expression inhibitor project, luminescence, BacTiterGlo (AID 1915); assay type: functional, organism-based;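 note: potency for reduction of bacterial viability or growth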
[4] = target: T2, Heat shock factor protein 1 (Mus musculus, UniProt P38532); assay: inhibition of MG132-induced HSE-luciferase signal, confirmation, cell-based, NIH3T3, luminescence, dose retest (AID 2382); assay type: functional;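 note: NIH3T3 fibroblasts with HSF1-driven luciferase reporter stressed by proteasome inhibitor MG132; luminescence from HSF1-driven luciferase expression after 8 hours of MG132 stress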
T2 sequence (P38532 whole entry): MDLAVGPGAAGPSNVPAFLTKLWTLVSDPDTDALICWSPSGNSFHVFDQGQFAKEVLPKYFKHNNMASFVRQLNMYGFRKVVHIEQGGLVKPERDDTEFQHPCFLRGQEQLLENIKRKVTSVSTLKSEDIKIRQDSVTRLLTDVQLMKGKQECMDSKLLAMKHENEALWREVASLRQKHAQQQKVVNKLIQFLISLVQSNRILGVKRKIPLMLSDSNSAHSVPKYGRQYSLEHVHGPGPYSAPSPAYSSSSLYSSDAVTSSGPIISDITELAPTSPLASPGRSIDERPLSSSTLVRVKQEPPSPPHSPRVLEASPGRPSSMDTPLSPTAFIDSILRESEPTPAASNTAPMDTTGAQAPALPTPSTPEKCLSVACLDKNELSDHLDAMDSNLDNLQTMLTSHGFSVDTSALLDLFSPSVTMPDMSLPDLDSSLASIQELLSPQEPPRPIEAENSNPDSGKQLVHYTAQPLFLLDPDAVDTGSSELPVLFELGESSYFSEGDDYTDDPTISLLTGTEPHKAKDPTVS

[5] = target: T3, Corticotropin-releasing factor receptor 2/Corticotropin-releasing factor-binding protein (Homo sapiens, UniProt P24387+Q13324); assay: activators of CRF receptor 2 with binding protein – uHTS hits, confirmation (AID 602473); assay type: functional; conditions: read-out: EC50_Mean
T3 sequence (Q13324 whole entry): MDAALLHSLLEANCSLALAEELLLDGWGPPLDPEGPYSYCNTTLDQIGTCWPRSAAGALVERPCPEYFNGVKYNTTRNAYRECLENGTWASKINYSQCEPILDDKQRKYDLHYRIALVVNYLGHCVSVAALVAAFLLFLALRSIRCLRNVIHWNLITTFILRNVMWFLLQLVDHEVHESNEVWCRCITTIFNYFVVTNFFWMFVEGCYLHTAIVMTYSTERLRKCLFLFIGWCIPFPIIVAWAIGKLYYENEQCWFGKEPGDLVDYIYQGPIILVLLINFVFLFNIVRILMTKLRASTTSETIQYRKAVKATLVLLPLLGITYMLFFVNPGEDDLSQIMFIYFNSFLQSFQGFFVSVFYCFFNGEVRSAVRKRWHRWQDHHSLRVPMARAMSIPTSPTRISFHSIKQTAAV
T3 sequence (P24387 whole entry): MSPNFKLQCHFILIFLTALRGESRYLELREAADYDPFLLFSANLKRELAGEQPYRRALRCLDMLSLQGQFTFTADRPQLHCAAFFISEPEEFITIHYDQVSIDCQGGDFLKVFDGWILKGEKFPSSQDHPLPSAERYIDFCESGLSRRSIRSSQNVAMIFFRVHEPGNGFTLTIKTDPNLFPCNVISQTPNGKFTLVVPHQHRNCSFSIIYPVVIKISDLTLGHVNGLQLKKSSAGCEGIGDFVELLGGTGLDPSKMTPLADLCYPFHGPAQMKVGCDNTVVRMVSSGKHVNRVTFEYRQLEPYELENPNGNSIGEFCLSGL

Cytochrome P450 2C9, sequence (P11712 whole entry): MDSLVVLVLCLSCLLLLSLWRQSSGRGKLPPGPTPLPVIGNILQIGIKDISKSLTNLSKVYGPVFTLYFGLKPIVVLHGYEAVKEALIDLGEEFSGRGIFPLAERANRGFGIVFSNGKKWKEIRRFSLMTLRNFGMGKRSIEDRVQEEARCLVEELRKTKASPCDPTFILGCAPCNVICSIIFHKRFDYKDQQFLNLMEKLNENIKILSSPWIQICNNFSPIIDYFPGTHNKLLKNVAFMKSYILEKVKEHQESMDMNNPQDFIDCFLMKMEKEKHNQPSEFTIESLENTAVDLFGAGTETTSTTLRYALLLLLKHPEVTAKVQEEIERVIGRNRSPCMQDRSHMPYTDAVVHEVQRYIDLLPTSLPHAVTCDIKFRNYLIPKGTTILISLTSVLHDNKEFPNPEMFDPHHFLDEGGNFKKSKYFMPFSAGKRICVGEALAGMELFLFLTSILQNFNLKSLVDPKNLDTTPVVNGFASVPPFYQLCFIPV
Cytochrome P450 3A4, sequence (P08684 whole entry): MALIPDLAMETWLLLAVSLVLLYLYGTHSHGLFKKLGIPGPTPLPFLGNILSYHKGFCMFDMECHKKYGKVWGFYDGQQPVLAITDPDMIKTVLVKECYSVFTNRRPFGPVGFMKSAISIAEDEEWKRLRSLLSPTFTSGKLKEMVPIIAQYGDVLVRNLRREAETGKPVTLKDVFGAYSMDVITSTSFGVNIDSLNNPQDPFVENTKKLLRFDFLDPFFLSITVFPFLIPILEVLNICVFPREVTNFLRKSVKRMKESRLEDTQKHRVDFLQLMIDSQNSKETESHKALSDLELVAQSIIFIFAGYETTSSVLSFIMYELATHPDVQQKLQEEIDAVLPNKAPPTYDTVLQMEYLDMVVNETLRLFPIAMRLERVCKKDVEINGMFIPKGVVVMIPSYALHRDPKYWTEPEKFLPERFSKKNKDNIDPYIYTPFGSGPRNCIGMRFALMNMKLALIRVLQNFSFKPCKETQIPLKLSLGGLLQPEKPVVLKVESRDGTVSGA

C#CCCCO/N=C1/C[C@@H](O)[C@@H](O)[C@@H]2[C@@H]3C(=O)N(C[C@@H]4CCCO4)C(=O)[C@H]3CC[C@@H]12
AC50 (Cytochrome P450 3A4): 3.98 µM (inconclusive)

COc1ccc(-c2ccc3c(n2)CCCN3C[C@H](O)CN2CCCc3nc(-c4ccc(Br)cc4)ccc32)cc1
AC50 (Cytochrome P450 2C9): 3.98 µM (inconclusive) and 3.16 µM (inconclusive)

CCOC(=O)CC1C(=O)NCCN1S(=O)(=O)c1ccc(Cl)c(Cl)c1 (stereo unspecified)
AC50 (Cytochrome P450 3A4): 12.6 µM (inconclusive)

O=c1c2ccc([N+](=O)[O-])cc2ncn1CCOc1cccc(Br)c1
EC50 [1]: > 60 µM (not active) | EC50 [2]: 0.212 µM (active)

Cc1ccc(S(=O)(=O)Nc2cc(C)c(O)c(S(=O)(=O)c3ccc(C)cc3)c2)cc1
EC50 [3]: 39.6 µM (active) | EC50 (Streptokinase A): > 150 µM (not active) | EC50 (Streptococcus): > 150 µM (not active)

CCOC(=O)CCCNS(=O)(=O)c1c(C)ccc2nsnc12
EC50 [4]: 53.4 µM (active)

Cc1ccc2c(CC(=O)Nc3sccc3C(N)=O)coc2c1
EC50 [5]: > 53 µM (inactive)

C=CCSc1nc2ccccc2c(=O)n1Cc1ccccc1
EC50 [3]: 15.7 µM (active) | EC50 (Streptokinase A): > 150 µM (not active) | EC50 (Streptococcus): 99.4 µM (active)

CC(C)(C)c1cccc(Oc2nn[nH]n2)c1
AC50 (Cytochrome P450 2C9): 25.1 µM (inconclusive) | AC50 (Cytochrome P450 3A4): 22.4 µM (inconclusive)

CC(=O)N=C(Nc1ccc2ccccc2c1)Nc1nc(C)cc(C)n1
EC50 [4]: 146 µM (active)

Cc1cc(NC(=O)CN2C(=O)c3ccccc3C2=O)no1
EC50 [3]: > 150 µM (not active) | EC50 (Streptokinase A): > 150 µM (not active) | EC50 (Streptococcus): > 150 µM (not active)

C=CCn1c(=O)c(C(=O)NCCN(CC)CC)c(O)c2ccccc21
AC50 (Cytochrome P450 2C9): 8.91 µM (inconclusive)

O=C(COc1c(Cl)cccc1Cl)Nc1ccccc1N1CCCC1
EC50 [3]: 16.4 µM (active) | EC50 (Streptokinase A): 16.1 µM (active) | EC50 (Streptococcus): > 150 µM (not active)

NC(=O)NC(=O)CSc1nc2sc(-c3ccccc3)cc2c(=O)n1-c1ccccc1
EC50 [3]: 2.21 µM (active) | EC50 (Streptococcus): 4.54 µM (active)

O=C(NCCN1CCCCC1)c1ccc(I)cc1
AC50 (Cytochrome P450 2C9): 31.6 µM (inconclusive)

Cc1cc(C(F)(F)F)c(C#N)c(SCC(=O)Nc2nc3cc(Br)ccc3s2)n1
EC50 [3]: 3.48 µM (active) | EC50 (Streptokinase A): 17.5 µM (active) | EC50 (Streptococcus): > 150 µM (not active)

CCCCC(=O)Nc1ccc(C(=O)NCCc2ccc(S(N)(=O)=O)cc2)cc1
EC50 [4]: > 195 µM (not active)

O=c1c(-c2cc(F)cc(F)c2)nc2cnc(Oc3ccccc3)nc2n1C[C@H]1CCCO1
AC50 (Cytochrome P450 3A4): 15.8 µM (inconclusive)

COc1ccc(-c2noc(-c3ccccc3-c3ccccc3)n2)cc1
EC50 [3]: 32.9 µM (active) | EC50 (Streptokinase A): 17.8 µM (active) | EC50 (Streptococcus): > 150 µM (not active)

CC(C)Oc1ccc2c(=O)c3cc(C(=O)O)ccc3oc2c1
AC50 (Cytochrome P450 2C9): 31.6 µM (inconclusive)

O=C(Cc1ccccc1)NN1C(=O)/C(=C/c2c[nH]c3ccccc23)SC1=S
EC50 [3]: 20.4 µM (active) | EC50 (Streptokinase A): > 150 µM (not active) | EC50 (Streptococcus): > 150 µM (not active)

Cc1ccc(C)c(NC(=O)NCc2ccc(Cl)cc2)c1
AC50 (Cytochrome P450 3A4): 2.51 µM (inconclusive)

O=C(CN1CCN(c2ccc(O)cc2)CC1)Nc1cc(S(=O)(=O)N2CCCC2)ccc1Cl
EC50 [4]: > 195 µM (not active)

CC1CC(C)CN(C(=O)c2ccc(CSc3nc4cc[nH]cc-4n3)cc2)C1 (stereo unspecified)
EC50 [4]: > 195 µM (not active)

Fc1ccc(-c2[nH]ncc2-c2nnnn2-c2ccccc2)c(F)c1
AC50 (Cytochrome P450 3A4): 10 µM (inconclusive)

Oc1ccc2ccccc2c1CN1CCCCC1
EC50 [5]: 3.84 µM (active)

CCC(=O)Nc1cc(-c2nn(CC(=O)N3CCCCC3)c(=O)c3ccccc23)ccc1N1CCOCC1
EC50 [4]: > 195 µM (not active)

CC1(C)CC(=O)C(C(c2cccnc2)C2C(=O)CC(C)(C)CC2=O)C(=O)C1
EC50 [4]: > 195 µM (not active)

Nc1c2c(nc3ccccc13)CSCC2
EC50 [1]: > 30 µM (not active) | EC50 [2]: 3.33 µM (active)

N#Cc1c(O)nc(SCc2ccc(Cl)cc2)nc1-c1ccccc1
EC50 [3]: 11.4 µM (active) | EC50 (Streptococcus): 14.1 µM (active)

CCN(CC)C(=O)c1cnc2ccc(S(=O)(=O)Nc3cc(C)cc(C)c3)cc2c1O
EC50 [5]: 4.85 µM (active)

O=C(c1cc(-c2ccncc2)nc2ccccc12)N1CCN(c2ccccn2)CC1
EC50 [1]: 10 µM (active) | EC50 [2]: 1.1 µM (active)

Nc1c(C(=O)NCc2ccccc2)sc2nc3c(cc12)C(=O)CCC3
AC50 (Cytochrome P450 2C9): 1.41 µM (inconclusive) | AC50 (Cytochrome P450 3A4): 25.1 µM (inconclusive)

O=C(/C=C/c1ccc([N+](=O)[O-])cc1)Oc1ccc(/C=N/NC(=O)c2ccncc2)cc1
EC50 [1]: > 60 µM (not active) | EC50 [2]: 9.25 µM (active)

C=CCNCCOCCOc1ccc(C)cc1[N+](=O)[O-]
AC50 (Cytochrome P450 3A4): 12.6 µM (inconclusive)

CN1CCC(N(C)CC(=O)Nc2cccc(Oc3ccccc3)c2)CC1
EC50 [1]: > 60 µM (not active) | EC50 [2]: < 0.1 µM (active)

Cc1cc(/C=C2\SC(=S)NC2=O)c(C)n1-c1cccc(O)c1
EC50 [3]: 6.9 µM (active) | EC50 (Streptococcus): 49.7 µM (inconclusive)

CC(C)Sc1cc(N2CCCC2)nc(-c2ccc(F)cc2)n1
AC50 (Cytochrome P450 2C9): 7.94 µM (inconclusive) | AC50 (Cytochrome P450 3A4): 17.8 µM (inconclusive) | EC50 [3]: 6.81 µM (active) | EC50 (Streptokinase A): 10.9 µM (active) | EC50 (Streptococcus): 23.8 µM (active)

CCOC(=O)Cn1cc(C=C2C(=O)N(C)C(=O)N(C)C2=O)c2ccccc21
EC50 [5]: 5.34 µM (active)

CCc1ccc(NC(S)=NC2CC3CCCC(C2)N3Cc2cccs2)cc1 (stereo unspecified)
EC50 [1]: > 60 µM (not active) | EC50 [2]: 5.85 µM (active)

CO[C@@H]1COC(=O)C/C=C\[C@@H](C)[C@@H]2C=C[C@H](O)[C@@H](COC(=O)CCC[C@H]1C)O2
AC50 (Cytochrome P450 3A4): 3.98 µM (inconclusive)

CN1CCN(c2ccncc2S(=O)(=O)N2CCN(C)CC2)CC1
AC50 (Cytochrome P450 3A4): 3.16 µM (inconclusive)

CC(Nc1nc(-c2ccccc2O)nc2ccccc12)c1ccccc1 (stereo unspecified)
EC50 [3]: 9.99 µM (active) | EC50 (Streptokinase A): 8.55 µM (active) | EC50 (Streptococcus): > 150 µM (not active)

N#Cc1c(-c2ccccc2)nc(SCc2ccc(Cl)cc2)[nH]c1=O
EC50 (Streptokinase A): 5.41 µM (active)

C=CCn1c(NCc2cc(Cl)ccc2O)nc2ccccc21
EC50 [3]: > 150 µM (not active) | EC50 (Streptokinase A): > 150 µM (not active) | EC50 (Streptococcus): > 150 µM (not active)

O=C(c1cccs1)N1N=C(c2ccccc2)CC1c1ccccc1O (stereo unspecified)
EC50 [1]: > 60 µM (not active) | EC50 [2]: 2.84 µM (active)

NC(=S)N/N=C/c1ccc2ccccc2c1
EC50 [1]: > 60 µM (not active) | EC50 [2]: 0.858 µM (active)

C[C@H](NC(=O)c1ccc(Cl)c(Cl)c1)c1ccc(-c2ccccc2)cc1
AC50 (Cytochrome P450 2C9): 3.16 µM (inconclusive)

Cc1sc(N)c(C(=O)c2cccc(C(F)(F)F)c2)c1C
AC50 (Cytochrome P450 3A4): 12.6 µM (inconclusive)

CCC(C)NCCOCCOc1ccc(F)cc1 (stereo unspecified)
EC50 [1]: 10.7 µM (active) | EC50 [2]: 0.806 µM (active)
